Assay results reported in EPA's ToxRefDB 2.

Legend:
rat [1] = settings: Peri- and post-natal toxicity study (Segment III), sprague dawley, Oral, Gavage/Intubation, dose end: 21 PND
dog [2] = settings: Chronic toxicity, beagle, Oral, Capsule, dose end: 52 week, group: systemic
rabbit [3] = settings: Prenatal developmental toxicity study, new zealand white, Oral, Gavage/Intubation, dose end: 18 GD, group: maternal
rat [4] = settings: Carcinogenicity; sprague dawley; Oral; Gavage/Intubation; dose end: 2 year; group: systemic; systemic / in life observation / body weight / body weight gain + systemic / in life observation / clinical signs / [other] + systemic / in …
rat [5] = settings: Prenatal developmental toxicity study; sprague dawley; Oral; Gavage/Intubation; dose end: 15 GD; group: maternal; systemic / in life observation / clinical signs / salivation
mouse [6] = settings: Carcinogenicity; cd1; Oral; Gavage/Intubation; dose end: 2 year; group: systemic; systemic / in life observation / body weight / body weight gain + systemic / in life observation / clinical signs / [other] + systemic / in …
dog [7] = settings: Chronic toxicity; beagle; Oral; Capsule; dose end: 6 month; group: systemic; systemic / clinical chemistry / triglycerides / triglycerides + systemic / in life observation / body weight / body weight gain + systemic…
rat [8] = settings: Fertility (Segment I), sprague dawley, Oral, Gavage/Intubation, dose end: 7 GD, group: parental
rat [9] = settings: Sub-acute repeat dose toxicity, sprague dawley, Oral, Gavage/Intubation, dose end: 4 week, group: systemic
rat [10] = settings: Chronic toxicity, sprague dawley, Oral, Gavage/Intubation, dose end: 6 month, group: systemic
rabbit [11] = settings: Prenatal developmental toxicity study, new zealand white, Oral, Gavage/Intubation, dose end: 18 GD, group: maternal; remark: listed apart in the source
mouse [12] = settings: Subchronic oral toxicity in rodents, cd1, Gavage/Intubation, dose end: 94 days, group: systemic
rat [13] = settings: Peri- and post-natal toxicity study (Segment III), sprague dawley, Oral, Gavage/Intubation, dose end: 4 PND
rat [14] = settings: Prenatal developmental toxicity study; sprague dawley; Oral; Gavage/Intubation; dose end: 15 GD; group: maternal; reproductive / reproductive performance / estrous cycle / corpora lutea + reproductive / reproductive performance / implantations / …
mouse [15] = settings: Combined chronic toxicity/carcinogenicity; b6c3f1; Oral; Feed; dose end: 24 month; group: systemic; systemic / pathology microscopic / liver / accentuated lobular pattern
dog [16] = settings: Chronic toxicity; beagle; Oral; Gavage/Intubation; dose end: 52 week; group: systemic; systemic / in life observation / body weight / body weight gain + systemic / in life observation / clinical signs / emesis + systemic / in …
rat [17] = settings: Subchronic oral toxicity in rodents, fischer, Feed, dose end: 90 day, group: systemic
rat [18] = settings: Carcinogenicity, sprague dawley, Injection, Intraperitoneal, dose end: 52 week, group: systemic
mouse [19] = settings: Carcinogenicity, b6c3f1, Injection, Intraperitoneal, dose end: 52 week, group: systemic
rat [20] = settings: Subchronic oral toxicity in rodents, sprague dawley, Injection, Intraperitoneal, dose end: 45 day, group: systemic
rat [21] = settings: Combined chronic toxicity/carcinogenicity; sprague dawley; Oral; Feed; dose end: 24 month; group: systemic; systemic / organ weight / liver / relative to body weight + systemic / pathology microscopic / liver / hypertrophy + systemic / pathology …
rat [22] = settings: Subchronic oral toxicity in rodents, sprague dawley, Feed, dose end: 13 week, group: systemic, systemic / clinical chemistry / cholesterol / cholesterol + systemic / organ weight / liver / relative to body weight + systemic / pathology…
rat [23] = settings: Multigenerational reproductive toxicity study, sprague dawley, Oral, Feed, dose end: 2 generation
dog [24] = settings: Chronic toxicity; beagle; Oral; Feed; dose end: 52 week; group: systemic; systemic / clinical chemistry / alkaline phosphatase (alp/alk) / alkaline phosphatase (alp/alk) + systemic / organ weight / liver / absolute…
mouse [25] = settings: Carcinogenicity, b6c3f1, Oral, Feed, dose end: 24 month, group: systemic
[26] = group: maternal, reproductive / reproductive performance / reproductive performance other / NOS
[27] = group: maternal, reproductive / reproductive performance / reproductive performance other / NOS + reproductive / offspring survival early / litter viability …
[28] = group: offspring, systemic / in life observation / body weight / offspring (pup) weight
[29] = group: parental, systemic / in life observation / clinical signs / abnormal respiratory sounds + systemic / in life observation / clinical signs / emaciation…
[30] = group: parental, systemic / in life observation / mortality / mortality
[31] = systemic / clinical chemistry / triglycerides / triglycerides + systemic / in life observation / body weight / body weight gain
[32] = systemic / clinical chemistry / triglycerides / triglycerides + systemic / in life observation / body weight / body weight gain + systemic…
[33] = reproductive / reproductive performance / aborted / aborted + reproductive / reproductive performance / postimplantation loss / …
[34] = systemic / in life observation / clinical signs / abnormal respiratory sounds + systemic / in life observation / clinical signs / urogenital…
[35] = systemic / in life observation / clinical signs / abnormal respiratory sounds + systemic / in life observation / food consumption / food …
[36] = systemic / clinical chemistry / potassium / potassium + systemic / clinical chemistry / sodium / sodium + systemic / in life observation / …
[37] = systemic / in life observation / clinical signs / motor activity
[38] = systemic / clinical chemistry / chloride / chloride + systemic / clinical chemistry / triglycerides / triglycerides + systemic / clinical …
[39] = systemic / in life observation / body weight / body weight gain + systemic / in life observation / food consumption / food consumption
[40] = systemic / in life observation / food consumption / food consumption
[41] = systemic / clinical chemistry / calcium / calcium + systemic / clinical chemistry / cholesterol / cholesterol + systemic / clinical …
[42] = systemic / clinical chemistry / potassium / potassium + systemic / clinical chemistry / bilirubin / total bilirubin + systemic / clinical …
[43] = group: maternal, reproductive / offspring survival early / birth index / live birth index
[44] = group: parental, systemic / in life observation / clinical signs / [other] + systemic / in life observation / clinical signs / labored respiration + systemic…
[45] = group: parental, systemic / in life observation / clinical signs / [other] + systemic / in life observation / clinical signs / salivation + systemic / in …
[46] = systemic / organ weight / liver / relative to body weight + systemic / organ weight / kidney / relative to body weight
[47] = systemic / in life observation / mortality / mortality + systemic / pathology microscopic / peritoneum / sarcoma
[48] = systemic / in life observation / mortality / mortality + systemic / pathology microscopic / peritoneum / sarcoma + systemic / in life …
[49] = systemic / in life observation / mortality / mortality
[50] = systemic / pathology microscopic / peritoneum / sarcoma + systemic / in life observation / body weight / body weight + systemic / in life …
[51] = systemic / in life observation / clinical signs / distended abdomens + systemic / in life observation / mortality / mortality + systemic / …
[52] = group: parental, systemic / in life observation / body weight / body weight + systemic / in life observation / food consumption / food consumption + systemic…
[53] = systemic / pathology gross / liver / enlarged + systemic / pathology gross / liver / mass + systemic / pathology gross / liver / nodule(s…

SMILES: CCOC(=O)COc1ccc2c(c1)CC(NCC(O)c1cccc(Cl)c1)CC2.Cl (stereo unspecified)
- LEL (rat [1]; [26]): 50 mg/kg/day
- NEL (rat [1]; [26]): < 50 mg/kg/day
- LOAEL (rat [1]; [27]): > 750 mg/kg/day
- NOAEL (rat [1]; [27]): ≥ 750 mg/kg/day
- LEL (rat [1]; [28]): 50 mg/kg/day
- LOAEL (rat [1]; [28]): 200 mg/kg/day
- NEL (rat [1]; [28]): < 50 mg/kg/day
- NOAEL (rat [1]; [28]): 50 mg/kg/day
- LOAEL (rat [1]; [29]): > 750 mg/kg/day
- NOAEL (rat [1]; [29]): ≥ 750 mg/kg/day
- LEL (rat [1]; [30]): 50 mg/kg/day
- NEL (rat [1]; [30]): < 50 mg/kg/day
- LEL (dog [2]; [31]): 10 mg/kg/day
- NEL (dog [2]; [31]): < 10 mg/kg/day
- LOAEL (dog [2]; [32]): > 250 mg/kg/day
- NOAEL (dog [2]; [32]): ≥ 250 mg/kg/day
- LOAEL (rabbit [3]; [33]): > 500 mg/kg/day
- NEL (rabbit [3]; [33]): 50 mg/kg/day
- NOAEL (rabbit [3]; [33]): ≥ 500 mg/kg/day
- LEL (rabbit [3]; reproductive / reproductive performance / postimplantation loss / postimplantation loss): 160 mg/kg/day
- LEL (rat [4]): 50 mg/kg/day
- LOAEL (rat [4]): > 500 mg/kg/day
- NEL (rat [4]): < 50 mg/kg/day
- NOAEL (rat [4]): ≥ 500 mg/kg/day
- LEL (rat [5]): 200 mg/kg/day
- LOAEL (rat [5]): > 750 mg/kg/day
- NEL (rat [5]): 50 mg/kg/day
- NOAEL (rat [5]): ≥ 750 mg/kg/day
- LEL (mouse [6]): 25 mg/kg/day
- LOAEL (mouse [6]): > 100 mg/kg/day
- NEL (mouse [6]): < 25 mg/kg/day
- NOAEL (mouse [6]): ≥ 100 mg/kg/day
- LEL (dog [7]): 10 mg/kg/day
- LOAEL (dog [7]): > 250 mg/kg/day
- NEL (dog [7]): < 10 mg/kg/day
- NOAEL (dog [7]): ≥ 250 mg/kg/day
- LOAEL (rat [8]; [34]): > 750 mg/kg/day
- NOAEL (rat [8]; [34]): ≥ 750 mg/kg/day
- LEL (rat [8]; [35]): 50 mg/kg/day
- NEL (rat [8]; [35]): < 50 mg/kg/day
- LOAEL (rat [9]; [36]): > 500 mg/kg/day
- NOAEL (rat [9]; [36]): ≥ 500 mg/kg/day
- LEL (rat [9]; [37]): 20 mg/kg/day
- NEL (rat [9]; [37]): < 20 mg/kg/day
- LOAEL (rat [10]; [38]): > 500 mg/kg/day
- NOAEL (rat [10]; [38]): ≥ 500 mg/kg/day
- LEL (rat [10]; [32]): 20 mg/kg/day
- NEL (rat [10]; [32]): < 20 mg/kg/day
- LOAEL (rabbit [11]; [39]): > 500 mg/kg/day
- NOAEL (rabbit [11]; [39]): ≥ 500 mg/kg/day
- LEL (rabbit [11]; [40]): 50 mg/kg/day
- NEL (rabbit [11]; [40]): < 50 mg/kg/day
- LOAEL (mouse [12]; [41]): > 500 mg/kg/day
- NOAEL (mouse [12]; [41]): ≥ 500 mg/kg/day
- LEL (mouse [12]; [42]): 100 mg/kg/day
- NEL (mouse [12]; [42]): < 100 mg/kg/day
- LEL (rat [13]; [43]): 200 mg/kg/day
- LOAEL (rat [13]; [43]): > 750 mg/kg/day
- NEL (rat [13]; [43]): 50 mg/kg/day
- NOAEL (rat [13]; [43]): ≥ 750 mg/kg/day
- LOAEL (rat [13]; [44]): > 750 mg/kg/day
- NOAEL (rat [13]; [44]): ≥ 750 mg/kg/day
- LEL (rat [13]; [45]): 50 mg/kg/day
- NEL (rat [13]; [45]): < 50 mg/kg/day
- LEL (rat [14]): 200 mg/kg/day
- LOAEL (rat [14]): > 750 mg/kg/day
- NEL (rat [14]): 50 mg/kg/day
- NOAEL (rat [14]): ≥ 750 mg/kg/day

SMILES: Oc1ccccc1-c1ccccc1 [2-Phenylphenol]
- LEL (mouse [15]): 250 mg/kg/day
- LOAEL (mouse [15]): 250 mg/kg/day
- NEL (mouse [15]): < 250 mg/kg/day
- NOAEL (mouse [15]): < 250 mg/kg/day
- LEL (dog [16]): 300 mg/kg/day
- LOAEL (dog [16]): 300 mg/kg/day
- NEL (dog [16]): 100 mg/kg/day
- NOAEL (dog [16]): 100 mg/kg/day
- LOAEL (rat [17]; systemic / in life observation / body weight / body weight + systemic / in life observation / body weight / body weight gain): 763 mg/kg/day
- NOAEL (rat [17]; systemic / in life observation / body weight / body weight + systemic / in life observation / body weight / body weight gain + systemic / in…): 377 mg/kg/day
- LEL (rat [17]; [46]): 377 mg/kg/day
- NEL (rat [17]; [46]): < 377 mg/kg/day

SMILES: CC(COc1ccccc1)N(CCCl)Cc1ccccc1.Cl (stereo unspecified) [Phenoxybenzamine hydrochloride]
- LEL (rat [18]; [47]): 5 mg/kg/day
- NEL (rat [18]; [47]): < 5 mg/kg/day
- LOAEL (rat [18]; [48]): > 10 mg/kg/day
- NOAEL (rat [18]; [48]): ≥ 10 mg/kg/day
- LEL (mouse [19]; [49]): 12.5 mg/kg/day
- NEL (mouse [19]; [49]): < 12.5 mg/kg/day
- LOAEL (mouse [19]; [50]): > 25 mg/kg/day
- NOAEL (mouse [19]; [50]): ≥ 25 mg/kg/day
- LEL (rat [20]; systemic / in life observation / clinical signs / distended abdomens): 15 mg/kg/day
- LOAEL (rat [20]; [51]): > 30 mg/kg/day
- NEL (rat [20]; [51]): 7.5 mg/kg/day
- NOAEL (rat [20]; [51]): ≥ 30 mg/kg/day

SMILES: C#CC(C)(C)NC(=O)c1cc(Cl)cc(Cl)c1 [Propyzamide]
- LEL (rat [21]): 48.8 mg/kg/day
- LOAEL (rat [21]): 48.8 mg/kg/day
- NEL (rat [21]): 10.1 mg/kg/day
- NOAEL (rat [21]): 10.1 mg/kg/day
- LEL (rat [22]): 60 mg/kg/day
- LOAEL (rat [22]): 60 mg/kg/day
- NEL (rat [22]): 12.3 mg/kg/day
- NOAEL (rat [22]): 12.3 mg/kg/day
- LEL (rat [23]; [28]): 114 mg/kg/day
- LOAEL (rat [23]; [28]): 114 mg/kg/day
- NEL (rat [23]; [28]): 15.4 mg/kg/day
- NOAEL (rat [23]; [28]): 15.4 mg/kg/day
- LEL (rat [23]; [52]): 114 mg/kg/day
- LOAEL (rat [23]; [52]): 114 mg/kg/day
- NEL (rat [23]; [52]): 15.4 mg/kg/day
- NOAEL (rat [23]; [52]): 15.4 mg/kg/day
- LEL (dog [24]): 33.1 mg/kg/day
- LOAEL (dog [24]): 33.1 mg/kg/day
- NEL (dog [24]): 11.9 mg/kg/day
- NOAEL (dog [24]): 11.9 mg/kg/day
- LOAEL (mouse [25]; systemic / pathology gross / liver / enlarged + systemic / pathology gross / liver / mass + systemic / pathology gross / liver / nodule(s)): 75 mg/kg/day
- LEL (mouse [25]; [53]): 75 mg/kg/day
- NEL (mouse [25]; [53]): 15 mg/kg/day
- NOAEL (mouse [25]; [53]): 15 mg/kg/day
